According to paper PMC12006171, “Marsupial cathelicidins: characterization, antimicrobial activity and evolution in this unique mammalian lineage” (Frontiers in Immunology, 2025):
Read-outs that look alike come from different tables or passages of the source. Where a SMILES comes first, the peptide text is derived from it.

How the values were obtained:
[1] = test system: bacterial and fungal infections in chemotherapy patients; conditions: human, in vivo; cited from earlier work
[2] = in vivo; cited from earlier work
[3] = test system: six bacteria (S. aureus, E. coli, P. aeruginosa; ATCC and clinical isolate); assay type: cell-based; conditions: synthesized mature peptide
Summary of the method: (§1)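 CLSI broth microdilution, MHB ± cations ± 10% lysed horse blood; peptide 64-0.125μg/mL final, duplicates; 5 x 10^5 CFU/mL; 35°C, 20–24 h; MIC = no visible growth.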

[4] = test system: three fungi (Candida krusei, Candida parapsilosis, Candida albicans); assay: Antifungal screening, summary over the panel of fungi (broth microdilution); assay type: cell-based; conditions: synthesized mature peptide
Description: Antimicrobial testing of 78 cathelicidin MPs was performed in two phases as outlined in Figure 1 . In phase I, 40 peptides (27 extant and 13 ancestral) were selected for testing based on rank (outlined above) and similarity to published marsupial cathelicidins with known antimicrobial activity ([33], [41]–[43]). These peptides were tested against nine bacteria (Staphylococcus aureus ATCC 29213 and clinical isolate, Escherichia coli ATCC 25922 and clinical isolate, Pseudomonas aeruginosa ATCC 27853 and clinical isolate, Streptococcus agalactiae ATCC 12386 and clinical isolate, Streptococcus pneumoniae ATCC 49619) and three fungi (Candida krusei ATCC 6258, Candida parapsilosis ATCC 22019, and Candida albicans clinical isolate). Details regarding these strains are available in Supplementary Table 4 . The antimicrobial activity of cathelicidins was determined as the minimum inhibitory concentration (MIC), which was the lowest concentration of cathelicidin that prevented visible bacterial or fungal growth, relative to the negative control. […] Minimum bactericidal concentration (MBC) and/or minimum fungicidal concentration (MFC) was conducted to determine microbicidal versus static action. Activity against S. aureus ATCC, E. coli ATCC, and Pseudomonas aeruginosa ATCC 27853 was examined in the presence of divalent cations to determine the impact of inhibitors.
Antimicrobial activity was determined using a broth microdilution susceptibility assay in 96 well polypropylene plates according to Clinical Laboratory Standards Institute guidelines M07-A and M26A as described previously ([33], [42], [43]). The bacterial and fungal isolates from humans and animals used in this study are outlined in Supplementary Table 4 . Only yeasts were included in the panel of fungi as they have been used in the susceptibility testing of eutherian ([3], [81]–[83]) and other marsupial cathelicidins previously ([33], [42], [43]). Cathelicidin mature peptides were solubilized in DMSO and serially diluted in duplicate from 128-0.25μg/mL in a final volume of 100µL. For bacteria, cathelicidins were diluted in Mueller Hinton Broth (MHB) with or without 10% lysed horse blood, and with (MH II B) or without (MHB) calcium and magnesium cations. For fungi, cathelicidins were diluted in Roswell Park Memorial Institute medium (RPMI)-1640 MOPS. Ampicillin or tetracycline were included as a positive control for Gram-positive and -negative bacteria respectively, while amphotericin B was used for fungi. A media-only negative control and growth control (no cathelicidin) were also included on each plate. Bacteria were sub-cultured on Muller Hinton agar (MHA) or sheep blood agar (BA), and fungi on Sabouraud dextrose agar (SAB), 20–24 hours prior to the test. Colonies were suspended in saline, the concentration adjusted to a 0.5 McFarland standard, and then diluted in media to a concentration of 1.0 x 10^6 cells/mL. Then, 100μL was added to each well of the cathelicidin dilution plate, giving a final inoculum density of 5 x 10^5 CFU/mL and cathelicidin concentration of 64-0.125μg/mL. Colony counts were performed on MHA/BA/SAB to confirm inoculum density. All plates were incubated at 35°C for 20–24 hours, depending on the strain.
Colonies were counted and compared to the colony count of the starting inoculum.

[5] = test system: panel of 11 bacteria and three fungi; assay: Antimicrobial screening phases I and II, summary over all strains; assay type: cell-based; conditions: active = MIC ≤64µg/mL against the strains tested
Description: Antimicrobial testing of 78 cathelicidin MPs was performed in two phases as outlined in Figure 1 . In phase I, 40 peptides (27 extant and 13 ancestral) were selected for testing based on rank (outlined above) and similarity to published marsupial cathelicidins with known antimicrobial activity ([33], [41]–[43]). These peptides were tested against nine bacteria (Staphylococcus aureus ATCC 29213 and clinical isolate, Escherichia coli ATCC 25922 and clinical isolate, Pseudomonas aeruginosa ATCC 27853 and clinical isolate, Streptococcus agalactiae ATCC 12386 and clinical isolate, Streptococcus pneumoniae ATCC 49619) and three fungi (Candida krusei ATCC 6258, Candida parapsilosis ATCC 22019, and Candida albicans clinical isolate). Details regarding these strains are available in Supplementary Table 4 . The antimicrobial activity of cathelicidins was determined as the minimum inhibitory concentration (MIC), which was the lowest concentration of cathelicidin that prevented visible bacterial or fungal growth, relative to the negative control. […]
Antimicrobial activity was determined using a broth microdilution susceptibility assay in 96 well polypropylene plates according to Clinical Laboratory Standards Institute guidelines M07-A and M26A as described previously ([33], [42], [43]). […]

[6] = test system: Escherichia coli ATCC 25922; assay: microbe, parasite or virus in culture; assay type: cell-based
Summary of the method: as §1

[7] = test system: Escherichia coli clinical isolate - animal; assay: microbe, parasite or virus in culture; assay type: cell-based
Summary of the method: as §1

[8] = test system: Pseudomonas aeruginosa ATCC 27853; assay: microbe, parasite or virus in culture; assay type: cell-based; conditions: ATCC 27853; read-out: MIC P. aeruginosa ATCC
Summary of the method: as §1

[9] = test system: Pseudomonas aeruginosa clinical isolate - animal; assay: microbe, parasite or virus in culture; assay type: cell-based; conditions: clinical isolate - animal; read-out: MIC P. aeruginosa
Summary of the method: as §1

[10] = test system: Staphylococcus aureus ATCC 29213; assay: microbe, parasite or virus in culture; assay type: cell-based; conditions: ATCC 29213; read-out: MIC S. aureus ATCC
Summary of the method: as §1

[11] = test system: Staphylococcus aureus clinical isolate - animal; assay: microbe, parasite or virus in culture; assay type: cell-based; conditions: clinical isolate - animal; read-out: MIC S. aureus
Summary of the method: as §1

[12] = test system: Streptococcus agalactiae ATCC 12386; assay: microbe, parasite or virus in culture; assay type: cell-based; conditions: ATCC 12386; read-out: MIC S. agalactiae ATCC
Summary of the method: (§2)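 Broth microdilution per CLSI M07-A/M26A; peptides in DMSO, final 64-0.125 μg/mL, inoculum 5 x 10^5 CFU/mL. Bacteria in MHB ± 10% lysed horse blood ± Ca/Mg cations, yeasts in RPMI-1640 MOPS; 35°C for 20–24 h. MIC is lowest concentration without visible growth.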

[13] = test system: Streptococcus agalactiae Clinical isolate - animal; assay: microbe, parasite or virus in culture; assay type: cell-based; conditions: clinical isolate - animal; read-out: MIC S. agalactiae
Summary of the method: as §2

[14] = test system: Streptococcus pneumoniae ATCC 49619; assay: microbe, parasite or virus in culture; assay type: cell-based; conditions: ATCC 49619; read-out: MIC S. pneumoniae ATCC
Summary of the method: as §2

[15] = test system: six bacteria (S. aureus, E. coli, P. aeruginosa; ATCC and clinical isolate); set-up: method as in 4 sources, ref Peel et al 2016 ||| ref Peel et al 2021 ||| ref Wang et al 2011 ||| ref Peel et al 2017; conditions: mature peptide; Y/N summary from earlier study; ref Peel et al 2021; cited from earlier work
[16] = test system: three fungi (Candida krusei, Candida parapsilosis, Candida albicans); set-up: method as in 4 sources, ref Peel et al 2016 ||| ref Peel et al 2021 ||| ref Wang et al 2011 ||| ref Peel et al 2017; conditions: mature peptide; Y/N summary from earlier study; ref Peel et al 2021; cited from earlier work
Chlamydia = conditions: in vitro; cited from earlier work
Excerpt: Many marsupial and monotreme cathelicidins were closely related to the classic cathelicidins found in eutherians. These cathelicidins sit within clade II in the phylogenetic tree, sister to eutherians but were not orthologous ( Figure 3 ). Classic marsupial cathelicidins were encoded in cluster A in the genome of all marsupials and monotremes studied, syntenic to the single cathelicidin gene/cluster in eutherians ( Figure 2 ). Many of these were antimicrobial and bactericidal, with MICs equal to or less than eutherian peptides such as cow BMAP-27 and -28 ([87]) and human LL-37, including again ...

## iseganan
[1]
  Bacterial and fungal infections in oral mucositis patients: significantly reducing bacterial and fungal infections
[2]
  Clinical outcomes in ventilator-associated pneumonia: no difference was observed between treated or placebo groups

## RFKRSLSDGVIDTSSLPPRIRDIYLQAKYDIISRILRN [MAP1, marsupial ancestral peptide 1, predicted ancestral cathelicidin of the NGP clade]
[3]; antimicrobial screening Phase I, Y/N summary over bacteria tested, broth microdilution
  Antibacterial (MIC <64ug/mL): N (Antibacterial (MIC <64ug/mL))
[4]; antimicrobial screening Phase I, Y/N summary over fungi tested, broth microdilution
  Antifungal (MIC <64ug/mL): N (Antifungal (MIC <64ug/mL))
[5]
  Antimicrobial activity in the assays: none displayed antimicrobial activity

## CC[C@H](C)[C@H](NC(=O)[C@H](CCCNC(=N)N)NC(=O)[C@H](CCCNC(=N)N)NC(=O)[C@@H]1CCCN1C(=O)[C@H](CC(N)=O)NC(=O)[C@H](CS)NC(=O)[C@H](CCCCN)NC(=O)[C@H](CCCNC(=N)N)NC(=O)[C@@H](NC(=O)[C@H](CC(C)C)NC(=O)[C@H](CC(C)C)NC(=O)[C@H](CS)NC(=O)[C@H](CCCNC(=N)N)NC(=O)[C@H](CCCCN)NC(=O)[C@H](CCCNC(=N)N)NC(=O)[C@H](CCCCN)NC(=O)[C@H](Cc1ccccc1)NC(=O)[C@H](CCCNC(=N)N)NC(=O)[C@H](CC(C)C)NC(=O)[C@@H]1CCCN1C(=O)[C@H](CCC(=O)O)NC(=O)[C@@H]1CCCN1)[C@@H](C)O)C(=O)N[C@H](C(=O)N[C@@H](Cc1ccccc1)C(=O)N[C@@H](CO)C(=O)N[C@@H](CC(C)C)C(=O)N[C@@H](CC(C)C)C(=O)N[C@@H](CCCCN)C(=O)NCC(=O)N[C@@H](CCCCN)C(=O)O)[C@@H](C)O [TrvuCath2] (H-PEPLRFKRKRCLLTRKCNPRRITFSLLKGK-OH; N-terminus and C-terminus assumed)
[6]; ATCC 25922
  MBC E. coli ATCC: 17.5 (17.5)^17.5 µM
  MIC E. coli ATCC: 17.5 (17.5)^17.5 µM
  MIC in the presence of cations E. coli ATCC: 17.5 (17.5)^17.5 µM
[6]; MHB without cations, 5 x 10^5 CFU/mL, 35°C 20–24 hours, duplicate
  MIC E. coli ATCC: 64 (64)^64 µg/mL
[6]; superscript value, cation-adjusted Mueller Hinton broth
  MIC in the presence of cations E. coli ATCC: 64 (64)^64 µg/mL
[6]; value in brackets, 99.9% reduction in CFU/mL
  MBC E. coli ATCC: 64 (64)^64 µg/mL
[7]; clinical isolate - animal
  MBC E. coli: 17.5 (17.5)^17.5 µM
  MIC E. coli: 17.5 (17.5)^17.5 µM
  MIC in the presence of cations E. coli: 17.5 (17.5)^17.5 µM
[7]; clinical isolate, MHB without cations, 5 x 10^5 CFU/mL, 35°C 20–24 hours, duplicate
  MIC E. coli: 64 (64)^64 µg/mL
[7]; clinical isolate, superscript value, cation-adjusted Mueller Hinton broth
  MIC in the presence of cations E. coli: 64 (64)^64 µg/mL
[7]; clinical isolate, value in brackets, 99.9% reduction in CFU/mL
  MBC E. coli: 64 (64)^64 µg/mL
[8]
  MIC: >17.5 µM
[9]
  MIC: >17.5 µM
[10]
  MIC: >17.5 µM
[11]
  MIC: >17.5 µM
[12]
  MIC: >17.5 µM
[13]
  MIC: >17.5 µM
[14]
  MIC: >17.5 µM
[3]; broth microdilution screening, phase I or II, Y/N summary over the bacteria tested
  Antibacterial (MIC <64ug/mL): Y (Antibacterial (MIC <64ug/mL))
[4]; broth microdilution screening, phase I, Y/N summary over the fungi tested
  Antifungal (MIC <64ug/mL): N (Antifungal (MIC <64ug/mL))
[5]
  Antimicrobial activity in the assays: displayed activity

## KRGGIWKLIRPLGRGAGRILRHFHIDFCGNC [PhciCath5, koala cathelicidin, reference compound]
[15]
  Antibacterial (MIC <64ug/mL): Y (Peel et al 2021) (Antibacterial (MIC <64ug/mL))
[16]
  Antifungal (MIC <64ug/mL): Y (Peel et al 2021) (Antifungal (MIC <64ug/mL))
Chlamydia
  Killing of Chlamydia: killed Chlamydia in vitro
